In ChEMBL document CHEMBL1150370, “Pestaloficiols A-E, bioactive cyclopropane derivatives from the plant endophytic fungus Pestalotiopsis fici” (Bioorg Med Chem, 2008):
Structures can show the parent of a compound that is named as a salt.

How the values were obtained:
[1] = system: Human immunodeficiency virus 1; assay: Antiviral activity against HIV1 in human C8116 cells assessed as reduction of p24 protein level after 4 days by ELISA; assay type: functional, organism-based; conditions: Human immunodeficiency virus 1, C8116, 96 h
[2] = Cytotoxicity against human C8116 cells after 4 days by MTT assay; assay type: cell-based

Row | EC50 [1] [µM] | SMILES | CC50 at 96 h [2] [µM]
1 | 0.00881 | CC(C)(C)NC(=O)[C@@H]1CN(Cc2cccnc2)CCN1C[C@@H](O)C[C@@H](Cc1ccccc1)C(=O)N[C@H]1c2ccccc2C[C@H]1O [INDINAVIR SULFATE] | –
2 | 26 | CC1(C)CC(=O)C2=C(O1)[C@@]1(C[C@H]1C(C)(C)O)[C@@H](O)[C@@H](O)C2 [PESTALOFICIOL D] | > 200
3 | 26 | CC1(C)CC(=O)C2=C(O1)[C@@]13C[C@@H]1C(C)(C)O[C@H]3[C@@H](O)C2 [PESTALOFICIOL A] | > 200
4 | 26 | CC1(C)CC(=O)C2=C(O1)[C@]1(C[C@@H]1C(C)(C)O)[C@@H](O)[C@@H](O)C2 [PESTALOFICIOL B] | > 200
